The values below come from patent US4242350A, “Antisecretory thiadiazole derivatives, processes for their manufacture and pharmaceutical compositions containing them” (Imperial Chemical Industries Limited, priority 1978, dated 1980).

One data set is described as follows: oral toxicity in rodents. In kind it is in vivo. Particulars: dosed orally to rodents at 300 mg/kg.
A further data set can be described thus: oral tolerance in dogs. The settings on record: dogs dosed orally with 100 mg./kg. The data set is classed as in vivo. The text has this:
No overt toxicity or side effects were noted during the dog tests.

Turning to `CNC(=NC#N)NCCSCc1nsc(NC(=N)N)n1` [3-[2-(2-cyano-3-methylguanidino)ethylthiomethyl]-5-guanidino-1,2,4-thiadiazole], the toxicity entry in “oral toxicity in rodents” is recorded as “no toxicity”. Moreover, the tolerance entry in the data set “oral tolerance in dogs” is “well tolerated”.
